According to patent publication US4578382A, “4-acylamino-1-azaadamantanes, and compositions for use thereof in medicine” (Etablissements Nativelle S.A., priority 1981, dated 1986):
Like-named read-outs stand apart in the source and are kept apart here.

Assays:
[1] = Acute toxicity in the mouse (LD 50, Litchfield and Wilcoxon); conditions: in vivo
Description: The acute toxicity of the derivatives of the invention were studied by intraperitoneal administration (I.P.) on the mouse (10 animals, 5 males and 5 females per dose) and calculation of the lethal dose 50 (LD 50) in accordance with the method of Litchfield and Wilcoxon (J. Pharmacol. 96, 99-113 (1949)).
In certain cases (derivatives of Examples 4, 6, 9), the LD 50 was also calculated after oral administration (P.O.) of the derivatives.

[2] = test system: anesthetized dog; assay: Hemodynamic (cardiovascular) tolerance in the anesthetized dog; format: in vivo; conditions: i.v., vs control period
Description: The hemodynamic tolerance of the derivatives of the invention was studied on dogs anesthesized with sodium pentobarbital. Endocavitary pressures were measured by means of catheters connected to Statham sensors while external recording of the electrocardiogram (E.C.G.) provided the measurement of cardiac frequency. Cardiac flow was measured by means of an electromagnetic sensor placed on the beginning of the aorta. The total peripheral resistances R were calculated from the value of the average aortic pressure (P) and the cardiac flow (Q) in accordance with the formula R=P/Q.
After measurement of the parameters during a control period, the derivatives were injected intravenously in cumulative doses (30 minute interval between doses). The variations of the parameters in relation to the control period were measured within 20 and 30 minutes after each injection and are expressed as a percentage of variation in relation to the control.
Table 2 summarizes the variations in hemodynamic parameters observed between the first and last injections.

[3] = test system: anesthetized dog; assay: Electrophysiological studies on the anesthetized dog; format: in vivo; conditions: i.v., 2 evaluations
Description: This study was carried out on dogs anesthetized with pentobarbital, with a closed thorax, by means of bipolar catheter-electrodes introduced into the cardiac cavities by transcutaneous venous and arterial means. The surface electrocardiogram (standard derivation D2) is recorded permanently.
By means of a programmable JANSEN (R) stimulator, the following parameters may be measured:
spontaneous cardiac frequency (FC);
sinus recuperation time (SRTc) after auricular stimulation imposed at 160 b/mn for 1 mn;
intracardiac conduction times (auriculohisien at a constant frequency, His-Purkinje, intraventricular);
the effective and functional refractory periods measured at an imposed constant frequency, with the extrastimulus method.
During the electrophysiological study, the derivatives were injected intravenously for 2 minutes for each dose and at 30 minute intervals between each dose. The doses are expressed as a cumulative value and as a base term.
The measurement of the various parameters was carried out before the injection of the first dose (control period) and from 10 to 28 minutes after the injection of each dose of the substance. The results are expressed as a percentage of variation in relation to the control period.

[4] = test system: ventricular arrhythmias and death induced by the aconitine; assay: Aconitine intoxication test in the anesthetized rat; format: in vivo; conditions: i.v., vs untreated control
Description: (§1) Narcisse et al, Ann. Pharma. Fr., 37, 325-330 (1979), in the rat by the aconitine intoxication test of S. Witchitz et al, Coeur Med. Int., X(2), 281-286, (1971) and in the dog by the Harris test described in Circulation, 1, 1318, (1950) and by the test with adrenalin after experimental infarct of I. J. Steffe et al, J. Pharmacol. Exp. Ther., 214, 50-57 (1980).
The anesthetized rat was intoxicated with an intravenous perfusion of aconitine while its electrocardiogram (ECG) was permanently recorded. During the perfusion at constant rate, the time necessary for the appearance of ventricular arrhythmias, successive extrasystoles (ESV), then stable ventricular tachycardium (TV) and the time within which the animal died were measured.
The animals were divided into a control group (untreated) and treated groups (different doses). The results are expressed as a percentage of prolonging the time of appearance of the arrhythmias and of death of the treated groups in reaction to the control group.
The results obtained are shown in Table 4 below and express the percentage of prolongation of the time of appearance of ventricular arrhythmias (ventricular extrasystoles and ventricular tachycardiums), and of the death, induced by the aconitine after an intravenous injection (I.V.) of several derivatives of the invention, in relation to a group of untreated control animals.

[5] = test system: anoxic ventricular fibrillation; assay: Lawson test (cardiac antifibrillatory power, chloroform); format: in vivo; conditions: ip; mouse, intraperitoneal, 10 minutes before chloroform
Description: The Lawson test is a test for the study of the cardiac antifibrillatory power of the derivatives. The mice (20 per group) received an intraperitoneal injection of the derivative 10 minutes before being placed in a chloroform-saturated atmosphere. Upon respiratory arrest, the thorax was opened (5 to 10 seconds) and whether or not the heart was in ventricular fibrillation was checked. The efficacy dose 50 (ED 50) of the derivative being studied is the dose which protects half the mice against anoxic ventricular fibrillation.

[6] = test system: ventricular arrhythmias with adrenalin; assay: Test with adrenalin after experimental infarct; format: in vivo, dog
Description: as §1
2 to 5 days after an experimental infarct, the effects of discontinuous injections (in intravenous bolus of […] of basic adrenalin) of adrenalin were observed on the electrocardioagram of the conscious dog.
During a first phase (control) of the experiment, three successive injections of adrenalin were given and, in the 2 minutes following each injection, the frequency of the ventricular extrasystoles was measured. In this manner, by increasing the dose of adrenalin as necessary, it was possible to determine the dose which caused the appearance of ventricular extrasystoles at a higher frequency than or equal to half the total number of ventricular systoles.
After injection of the derivative to be tested, the same dose of adrenalin was reinjected after 5 minutes, then 30 minutes, 60 minutes, 90 minutes, etc., and its effects were compared to those observed during the control period.
The results therein are expressed as a percentage of extrasystoles (on the total number of systoles) measured during the 2 minutes following the injection of adrenalin before and after the administration of the derivative to be tested.

[7] = Lawson test (cardiac antifibrillatory power, chloroform); conditions: in vivo, ip; mouse, intraperitoneal; read-out: Maximum Dose Tolerated
[8] = test system: ventricular arrhythmias; assay: Harris test (ventricular arrhythmias after experimental infarct); format: in vivo, dog
Description: as §1
The ligature of the anterior interventricular artery in the anesthetized dog causes the appearance of an experimental infarct of the myocardium followed by considerable ventricular arrhythmias.
The dogs were studied 24 to 48 hours after the intervention. The electrocardiogram (ECG) was then recorded permanently, the conscious dog being at rest in an isolated laboratory. After a period of 3 hours of ECG recording, allowing for the measurement of the cardiac frequency of the dog the frequency of ventricular extrasystoles (ESV)--pre-treatment control period--the derivative to be studied was injected intravenously for 1 minute. Continuous recording of the ECG enabled, in the hours following the injection, measurement of the frequency of the ESV/mn for successive periods from 30 to 60 min. The number of ESV per minute measured for 3 hours during the control period varied from 66 to 172/min with an average of 111/min. […] The length of this antiarrhythmic effect observed varied depending on the derivatives from 1 hour to more than 5 hours. For example, the percentage decrease of the ESV/min in the case of the derivative of Example 11 (cumulative dose 14 mg/kg) was 96% (0 to 1/2 hour), 50% (1/2 to 1 hour) and 68% (1 to 2 hour). The corresponding values for the derivative of Example 4 (3 mg/kg) were 44%, 55% and 45%, respectively.

[9] = ip, intraperitoneal, read-out: LD 50 I.P.
[10] = 1 mg/kg, control period 48% of ESV
[11] = cumulative doses 0.3 to 10 mg/kg
[12] = 14.3 mg/kg, control period 74% of ESV

## CC1(NC(=O)Cc2ccccc2)C2CC3CC1CN(C2)C3(C)C (centres unmarked) [Example 9, N-phenylacetyl-4-amino-4,8,8-trimethyl-1-azaadamantane]
[1]; [9]
  LD50: 430 mg/kg
[1]; oral, read-out: LD 50 P.O.
  LD50: 2400 mg/kg
[2]; cumulative doses 1 to 10 mg/kg
  Cardiac Flow, percentage of variation: 0 to -30%
  Cardiac Frequency, percentage of variation: 0 to -12%
  Total Peripheral Resistances, percentage of variation: -5 to +15%
  dp/dt/p Left Ventricular, percentage of variation: 0 to -33%
[3]; doses 1 to 19 mg/kg
  F.C. (cardiac frequency), variation: 0%
  HV (time of His-Purkinje conduction), variation: +18 to +100%
  PREA (effective auricular refractory period), variation: +6 to +45%
  PREV (effective ventricular refractory period), variation: +2 to +15%
  QRS (time of intraventricular conduction), variation: 0 to +23%
  St-H (time of auriculohisien conduction), variation: 0 to +30%
[4]; 10 mg/kg
  Prolongation of time of appearance of ventricular extrasystoles (ESV): +31%
  Prolongation of time of appearance of ventricular tachycardium (TV): +79%
  Prolongation of time to death: +44%
[4]; 20 mg/kg
  Prolongation of time of appearance of ventricular extrasystoles (ESV): +100%
  Prolongation of time of appearance of ventricular tachycardium (TV): +79%
  Prolongation of time to death: +84%
[4]; 40 mg/kg
  Prolongation of time of appearance of ventricular extrasystoles (ESV): +171%
  Prolongation of time of appearance of ventricular tachycardium (TV): +147%
  Prolongation of time to death: +88%
[5]
  ED50: 90 mg/kg
[6]; [10]
  ESV Percentage at 5 min: 11%
  ESV Percentage at 30 min: 27%
  ESV Percentage at 60 min: 45%
[7]
  MTD: 200 mg/kg

## CC1(NC(=O)CCCc2ccccc2)C2CC3CC1CN(C2)C3(C)C (centres unmarked) [Example 11, N-(4-phenylbutyryl)-4-amino-4,8,8-trimethyl-1-azaadamantane]
[8]; cumulative dose 14 mg/kg i.v., 0 to 1/2 hour
  Percentage decrease of the ESV/min: 96%
[8]; cumulative dose 14 mg/kg i.v., 1/2 to 1 hour
  Percentage decrease of the ESV/min: 50%
[8]; cumulative dose 14 mg/kg i.v., 1 to 2 hour
  Percentage decrease of the ESV/min: 68%

## CC1(NC(=O)CCc2ccccc2)C2CC3CC1CN(C2)C3(C)C (centres unmarked) [Example 4, N-(3-phenylpropionyl)-4-amino-4,8,8-trimethyl-1-azaadamantane]
[1]; [9]
  LD50: 375 mg/kg
[1]; oral, read-out: LD 50 P.O.
  LD50: 2400 mg/kg
[2]; [11]
  Cardiac Flow, percentage of variation: -7 to -23%
  Cardiac Frequency, percentage of variation: -7%
  Systolic Arterial Pressure, percentage of variation: -7 to -28%
  Total Peripheral Resistances, percentage of variation: 0 to -13%
  dp/dt/p Left Ventricular, percentage of variation: 0 to -40%
[3]; doses 0.3 to 14.3 mg/kg
  F.C. (cardiac frequency), variation: 0%
  HV (time of His-Purkinje conduction), variation: 0 to +80%
  PREA (effective auricular refractory period), variation: +10 to +35%
  PREV (effective ventricular refractory period), variation: 0 to +10%
  QRS (time of intraventricular conduction), variation: 0 to +15%
  St-H (time of auriculohisien conduction), variation: +7 to +10%
[4]; 5 mg/kg
  Prolongation of time of appearance of ventricular extrasystoles (ESV): +37%
  Prolongation of time of appearance of ventricular tachycardium (TV): +50%
  Prolongation of time to death: +25%
[4]; 10 mg/kg
  Prolongation of time of appearance of ventricular extrasystoles (ESV): +60%
  Prolongation of time of appearance of ventricular tachycardium (TV): +86%
  Prolongation of time to death: +39%
[4]; 20 mg/kg
  Prolongation of time of appearance of ventricular extrasystoles (ESV): +103%
  Prolongation of time of appearance of ventricular tachycardium (TV): +89%
  Prolongation of time to death: +65%
[5]
  ED50: 72 mg/kg
[8]; 3 mg/kg i.v., 0 to 1/2 hour
  Percentage decrease of the ESV/min: 44%
[8]; 3 mg/kg i.v., 1/2 to 1 hour
  Percentage decrease of the ESV/min: 55%
[8]; 3 mg/kg i.v., 1 to 2 hour
  Percentage decrease of the ESV/min: 45%
[6]; [12]
  ESV Percentage at 5 min: 36%
  ESV Percentage at 30 min: 59%
  ESV Percentage at 60 min: 60%
[7]
  MTD: 200 mg/kg
